In the NIST ThermoML archive (doi:10.1016/j.jct.2012.07.007):

Key:
[1] = excess molar enthalpy (molar enthalpy of mixing); xn = mol fraction of the nth substance listed; settings: 298.15 K, 101 kPa, Liquid, 2-drop calorimetry
[2] = xn = mol fraction of the nth substance listed; settings: 101 kPa, Liquid; for speed of sound: Linear variable-path acoustic interferometer; for mass density: Vibrating tube method

c1ccncc1 [pyridine] + CCn1cc[n+](C)c1.F[B-](F)(F)F
[1]
Settings	excess molar enthalpy [kcal/mol]
x2 = 0.1025	-0.0352
x2 = 0.1335	-0.0449
x2 = 0.1727	-0.0555
x2 = 0.2121	-0.067
x2 = 0.2654	-0.0785
x2 = 0.3078	-0.087
x2 = 0.3587	-0.0968
x2 = 0.4112	-0.101
x2 = 0.4632	-0.107
x2 = 0.4956	-0.108
x2 = 0.5325	-0.108
x2 = 0.589	-0.106
x2 = 0.6312	-0.1
x2 = 0.6983	-0.091
x2 = 0.7567	-0.0806
x2 = 0.8078	-0.0667
x2 = 0.8654	-0.0505
x2 = 0.9123	-0.0344

[2]
Settings	mass density, 293.15 K [kg/m3]	mass density, 298.15 K [kg/m3]	mass density, 303.15 K [kg/m3]	mass density, 308.15 K [kg/m3]	speed of sound, 293.15 K [m/s]	speed of sound, 298.15 K [m/s]	speed of sound, 303.15 K [m/s]	speed of sound, 308.15 K [m/s]
x2 = 0.1225	1057.86	1053.89	1049.31	1044.82	1486.4	1466.7	1450.1	1431.5
x2 = 0.1781	1085.74	1081.91	1077.49	1073.08	1504.8	1486.7	1470.9	1453.6
x2 = 0.2349	1111.05	1107.24	1102.93	1098.58	1521.5	1505.5	1489.4	1473.3
x2 = 0.2787	1128.56	1124.75	1120.49	1116.15	1533.4	1517.7	1502.2	1487.6
x2 = 0.3215	1144.24	1140.37	1136.25	1131.85	1544	1528.8	1513.9	1499.2
x2 = 0.3716	1160.99	1156.91	1152.96	1148.63	1555.6	1541.1	1525	1512.2
x2 = 0.4229	1176.47	1172.38	1168.48	1164.16	1565.7	1550.9	1536.1	1523.5
x2 = 0.4723	1189.98	1185.87	1182.12	1177.75	1574	1560.4	1544.5	1533.1
x2 = 0.5213	1202.28	1198.15	1194.47	1190.17	1582.4	1568.3	1552.8	1541.1
x2 = 0.5731	1214.14	1209.97	1206.44	1202.2	1589.6	1575.5	1561.4	1549.5
x2 = 0.6212	1224.23	1220.11	1216.67	1212.48	1596.2	1582.6	1568.1	1557.4
x2 = 0.6719	1234.08	1230	1226.63	1222.55	1603.2	1589.2	1575.5	1564.3
x2 = 0.7224	1243.17	1239.16	1235.85	1231.85	1609.3	1595.2	1583.1	1571.5
x2 = 0.7737	1251.76	1247.81	1244.54	1240.61	1615.2	1601.3	1589.7	1578.5
x2 = 0.8219	1259.31	1255.42	1252.16	1248.26	1619.9	1607	1595.8	1584.8
x2 = 0.8764	1267.33	1263.49	1260.17	1256.28	1625.1	1612.2	1602	1590.5
x2 = 0.9223	1273.71	1269.86	1266.47	1262.53	1628.2	1616	1605.5	1594
x2 = 0.9349	1275.41	1271.55	1268.13	1264.16	1628.9	1616.8	1606.2	1594.8
